Target: Shp (Streptococcus pyogenes, UniProt Q06A48, M66A)
Test: biochemical

c1c[nH]cn1 [imidazole] gave a Kd of 210 ± 11 µM.

From paper PMC3815476 (Biochemistry, 2013)
